# Reference: US20030086902A1, “Cytokine-like peptide” (priority 1999, published 2003)
# What was measured:
# Format in all cases: cell-based
# [1] = system: sindbis viruses; assay: antiviral bioassay using FL cells and sindbis viruses
# Experimental: The antiviral activity of the resultant synthetic peptides was inspected by a bioassay method using human amnion-derived FL cells and sindbis viruses (Armstrong, J. A., Methods in Enzymology, 78, 381-387 (1981)). FL cells were inoculated on wells of a 96-well microtiter plate (IWAKI GLASS CO., LTD.) at 3.5×10^5 cells/well and cultured for 24 hours. Thereafter, each peptide was added at the concentration shown in FIG. 3 (0.9 μM to 120 μM) and cultured for 24 hours. […] Thereafter, sindbis viruses were added to each well and cultured for 15 hours. The culture solution was discarded, the plate was immersed in a crystal violet solution containing formalin for about 15 minutes, and living cells were immobilized and stained.
# In order to identify an amino acid residue that plays an important role in expressing the antiviral activity of peptide SYR6, 12 types of varied peptides were prepared through chemical synthesis in which each of all the amino acid residues other than alanine of SYR6 were respectively substituted with alanine (peptides were successively designated as N1 to N15 in order from the N-terminus side in accordance with the number of the amino acid residue converted into alanine. Since the fourth, eighth, and ninth residues are alanine, excluding these, a total of 12 types of peptides was prepared). The sequences are shown in the lower part of FIG. 7. […]
# [2] = system: vesicular stomatitis viruses (VSV); details: human amnion-derived FL cells
# [3] = system: sindbis viruses; assay: antiviral activity in the presence of interferon neutralizing antibodies (FL cells, sindbis viruses); details: MIF-1 (anti-IFN α), YSB-1 (anti-IFN β), anti-IFN γ antibodies added
# Experimental: In order to deny the possibility that the antiviral activity of peptide SYR6 is attained by inducing endogenous production of interferon, the antiviral activity in the presence of various interferon neutralizing antibodies was examined. FL cells were inoculated on wells of a 96-well microtiter plate (IWAKI GLASS CO., LTD.) at 3.5×10^5 cells/well and cultured for 24 hours. Thereafter, peptide SYR6 was added at the concentration shown in FIG. 5 (0.9 μM to 120 μM) and cultured for 24 hours. […] Thereafter, sindbis viruses were added to each well and cultured for 15 hours. In this case also, various neutralizing antibodies were added and cultured under the same conditions as described above. The culture solution was discarded, the plate was immersed in a crystal violet solution containing formalin for about 15 minutes, and living cells were immobilized and stained. […] Therefore, the possibility that the antiviral activity of peptide SYR6 was attained by inducing the production of endogenous interferon was denied.
substance,measurement,setting,value
"SYR6: synthetic 15-residue peptide with the sequence of phage 6, SEQ ID NO: 1 (SVQARWEAAFDLDLY; Designed peptide based on the DNA sequence of phage binding to monoclonal antibody YSB-2)",antiviral activity of the synthetic peptides (FIG. 3),"[1]; FL cells, SYR6 HPLC peaks measured separately",activity was recognized
same,concentration at which the peptide began to exhibit antiviral activity,"[1]; human amnion-derived FL cells, peptide 0.9 μM to 120 μM for 24 hours",30 µM
same,concentration at which the peptide began to exhibit antiviral activity,[2],30 µM
same,antiviral activity in the presence of interferon neutralizing antibodies,[3],not affected at all
